For eleven compounds, EC50 results are on record in patent US9284323B2, “Naphthalene acetic acid derivatives against HIV infection” (Gilead Sciences, Inc., priority 2012, dated 2016).

Broadly, the EC50 is the concentration at which the effect is half-maximal. A low value points to an effect from little substance.

The test system of this test is HIV-IIIb. In words: Test A: Antiviral Assays in MT4 Cells. The format is cell-based. Particulars: MT-4 cells infected with HIV-IIIb, 5 days incubation, CellTiter-Glo readout. The protocol:
The antiviral properties of a compound disclosed herein may be determined using Test A described below.
Test A: Antiviral Assays in MT4 Cells
For the antiviral assay utilizing MT-4 cells, 0.4 μL of […] test concentration of 3-fold serially diluted compound in DMSO was added to 40 μL of cell growth medium (RPMI 1640, 10% FBS, 1% penicillin/Streptomycin, 1% L-Glutamine, 1% HEPES) in each well of 384-well assay plates (10 concentrations) in quadruplicate.
1 mL aliquots of 2×10e6 MT-4 cells are pre-infected for 1 and 3 hrs respectively, @ 37° C. with 25 μL (MT4) or of either cell growth medium (mock-infected) or a fresh 1:250 dilution of an HIV-IIIb concentrated ABI stock (0.004 m.o.i. for MT4 cells). Infected and uninfected cells are diluted in cell growth medium and 35 μL of 2000 (for MT4) cells is added to each well of the assay plates.
Assay plates were then incubated in a 37° C. incubator. After 5 days of incubation, 25 μl of 2× concentrated CellTiter-Glo™ Reagent (catalog # G7573, Promega Biosciences, Inc., Madison, Wis.) was added to each well of the assay plate. Cell lysis was carried out by incubating at room temperature for 2-3 min and then chemiluminescence was read using the Envision reader (PerkinElmer).
Background: ATP-based viability assays read luminescence as a measure of living cells.

Setting [1] is: Human immunodeficiency virus 1, IIIB, MT4, 120 h, Table II.

The compound `COCC(C)(C)O[C@H](C(=O)O)c1c(C)cc2ccccc2c1-c1ccc2c3c(ccnc13)CCO2` (atropisomer, axis not shown) [Example 25, (2S)-2-((R)-1-(2,3-dihydropyrano[4,3,2-de]quinolin-7-yl)-3-methylnaphthalen-2-yl)-2-(1-methoxy-2-methylpropan-2-yloxy)acetic acid] gave a concentration giving a half-maximal response (EC50) (Table I) of 37 nM.

Consider `Cc1cc2c(C(F)F)c(C)ccc2c(-c2ccc3c4c(ccnc24)CCO3)c1[C@H](OC(C)(C)C)C(=O)O` (atropisomer, axis not shown) [Example 70], for which the midpoint of the response under setting [1], the EC50, lay at 11.6 nM.

Where the note is “Table II”, `Cc1cc2c(C)c(-c3cncnc3)ccc2c(-c2ccc3c4c(ccnc24)CCO3)c1[C@H](OC(C)(C)C)C(=O)O` (atropisomer, axis not shown) [Example 80] displayed an EC50 of 21.1 nM.

As to `CC(C)(C)O[C@H](C(=O)O)c1c2c(c3ccccc3c1-c1ccc3c4c(ccnc14)CCO3)CCC2` (atropisomer, axis not shown) [Example 33], the half-maximal effective concentration (EC50) (Table II) was 1660 nM.

Turning to `COc1c(C)c([C@H](OC(C)(C)C)C(=O)O)c(-c2ccc3c4c(ccnc24)CCO3)c2ccccc12` (atropisomer, axis not shown) [Example 82], the 50% effective concentration (EC50) under setting [1] stood at 43.2 nM.

In the case of `Cc1cc2c(C)c(-c3cnc(N(C)C)nc3)ccc2c(-c2ccc3c4c(ccnc24)CCO3)c1[C@H](OC(C)(C)C)C(=O)O` (atropisomer, axis not shown) [Example 72], it took 7020 nM to reach a half-maximal effect (Table II) (EC50).

For `Cc1cc2cc(C#CC3CC3)ccc2c(-c2ccc3c4c(ccnc24)CCO3)c1[C@H](OC(C)(C)C)C(=O)O` (atropisomer, axis not shown) [Example 21, (S)-2-tert-Butoxy-2-((R)-6-(cyclopropylethynyl)-1-(2,3-dihydropyrano[4,3,2-de]quinolin-7-yl)-3-methylnaphthalen-2-yl)acetic acid], where the note is “Human immunodeficiency virus 1, IIIB, MT4, 120 h, Table I”, the EC50 was found to be 169 nM.

`Cc1cc2cc(-c3cnc(N(C)C)nc3)ccc2c(-c2ccc3c4c(ccnc24)CCO3)c1[C@H](OC(C)(C)C)C(=O)O` (atropisomer, axis not shown) [Example 48] showed a 50% effective concentration (EC50) under setting [1] of 10.4 nM.

`Cc1cc2cc(-c3cncnc3C)ccc2c(-c2ccc3c4c(ccnc24)CCO3)c1[C@H](OC(C)(C)C)C(=O)O` (atropisomer, axis not shown) [Example 57] displayed an EC50 (Table II) of 10000 nM.

On to `Cc1cc2cc(C#Cc3cncnc3)ccc2c(-c2ccc3c4c(ccnc24)CCO3)c1[C@H](OC(C)(C)C)C(=O)O` (atropisomer, axis not shown) [Example 43], for which the midpoint of the response (Table II), the EC50, lay at 121 nM.

Under setting [1], `Cc1cc2c3c(ccc2c(-c2ccc4c5c(ccnc25)CCO4)c1[C@H](OC(C)(C)C)C(=O)O)COC3` (atropisomer, axis not shown) [Example 67] returned a concentration giving a half-maximal response (EC50) of 52.3 nM.
